Article PMC11358443, “Polymodal K^+ channel modulation contributes to dual analgesic and anti-inflammatory actions of traditional botanical medicines” (Communications Biology, 2024)

Tests used:
human Kv1.3 = human Kv1.3 (Homo sapiens, UniProt P22001); assay: TEVC electrophysiology, Xenopus oocytes expressing Kv1.3; type: cell-based; settings: for effect of 160 mM [K+]O on Kv1.3 inhibition: versus 4 mM [K+]O
Experimental: (§1) We generated human potassium channel cRNA transcripts with the mMessage mMachine kit (Thermo Fisher Scientific, Waltham, MA, USA) according to manufacturer’s instructions, after vector linearization, from cDNA sub-cloned into expression vectors (pTLNx, pXOOM and pMAX). We injected Xenopus laevis oocytes (Xenoocyte, Dexter, MI, USA) with the channel cRNAs (0.5–10 ng) and incubated the oocytes at 16 °C for 1–4 days prior to electrophysiological recording.
(§2) We performed TEVC at 20–23 °C with an OC-725C amplifier (Warner Instruments, Hamden, CT, USA) and pClamp10 software. Chemicals for recording and oocyte storage solutions were from Sigma-Aldrich (St. Louis, MO). Bath solution contained (in mM): 96 NaCl, 4 KCl, 1 MgCl2, 1 CaCl2, 10 HEPES (pH 7.6). Pipettes were 1–2 MΩ resistance when filled with 3 M KCl. We recorded currents in response to voltage pulses between −120 mV or −80 mV and +40 mV at 10 mV intervals from a holding potential of −80 mV, to yield current–voltage relationships and examine activation kinetics. We recorded and analyzed data using Clampfit (Molecular Devices, Sunnyvale, CA, USA) and Graphpad Prism software (GraphPad, San Diego, CA, USA), stating values as mean ± SEM. We calculated the voltage dependence of activation (V0.5) by measuring tail currents at a voltage pulse of −30 mV (Kv7) or −50 mV (Kv1), then fitted the tail current/voltage relationship with a single Boltzmann function:1 g=(A1−A2)/{1+exp[V1/2−V/Vs]}y+A2 where g is the normalized tail conductance, A1 is the initial value at −∞, A2 is the final value at +∞, V1/2 is the half-maximal voltage of activation and Vs the slope factor. We fitted activation and deactivation kinetics with single exponential functions.
(§3) For wild-type and mutant Kv1.3 channels we calculated conductance–voltage curves from current–voltage relationships recorded in response to voltage pulses between −80 mV to +40 mV in 10 mV intervals from a holding potential of −80 mV. The conductance was calculated by subtracting the driving force (EK):2 Ek=xlnK^+i/K^+o

TREK-1 (KCNK2) = biological target: T1, TREK-1 (KCNK2) (Homo sapiens, UniProt O95069); assay: TEVC electrophysiology, Xenopus oocytes expressing TREK-1; type: cell-based
T1 sequence (O95069 1-426): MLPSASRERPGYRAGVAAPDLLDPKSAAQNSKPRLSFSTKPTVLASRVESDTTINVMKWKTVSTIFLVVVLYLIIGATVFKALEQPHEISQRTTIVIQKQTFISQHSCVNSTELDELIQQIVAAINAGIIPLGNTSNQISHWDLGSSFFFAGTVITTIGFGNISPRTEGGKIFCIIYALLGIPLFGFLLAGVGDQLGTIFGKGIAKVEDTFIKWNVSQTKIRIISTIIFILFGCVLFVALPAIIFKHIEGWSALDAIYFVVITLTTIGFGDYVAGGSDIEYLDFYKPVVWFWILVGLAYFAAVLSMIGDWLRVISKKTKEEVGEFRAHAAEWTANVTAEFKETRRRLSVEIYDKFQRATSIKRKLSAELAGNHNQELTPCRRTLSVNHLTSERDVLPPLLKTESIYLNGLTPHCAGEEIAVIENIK
Experimental: as §1, §2

Kv1.3 Mutant 3 = Kv1.3 Mutant 3 (Homo sapiens, UniProt P22001, H451V/V453T); assay: TEVC electrophysiology, oocytes expressing Kv1.3 Mutant 3 (Kv1.2 selectivity filter-S6 linker residues); type: cell-based
Excerpt: To test whether the predicted different binding poses of tannic acid to Kv1.2 and Kv1.3 could explain the contrasting functional effects on these two channels, we made three mutant forms of Kv1.3, introducing Kv1.2 residues into the Kv1.3 turret loop (Mutant 1), pore helix (Mutant 2) and selectivity filter-S6 linker (Mutant 3) (Fig. 9A, B). Mutant 2 was nonfunctional (Fig. 9C); the single residue in this mutant was inaccessible to tannic acid as it was deep inside the pore and was not predicted therefore to interact with tannic acid (Fig. 8).
as §1, §2, §3

Kv7.5 = Kv7.5 (Homo sapiens, UniProt Q9NR82); parameters: method as in PMID 35997997; settings: 100 µM; at −80 mV; cited from earlier work
Kv1.1 = Kv1.1 (Homo sapiens, UniProt Q09470); parameters: method as in PMID 33093824; settings: cited from earlier work
Chain of Kv1.1 (Q09470 whole entry): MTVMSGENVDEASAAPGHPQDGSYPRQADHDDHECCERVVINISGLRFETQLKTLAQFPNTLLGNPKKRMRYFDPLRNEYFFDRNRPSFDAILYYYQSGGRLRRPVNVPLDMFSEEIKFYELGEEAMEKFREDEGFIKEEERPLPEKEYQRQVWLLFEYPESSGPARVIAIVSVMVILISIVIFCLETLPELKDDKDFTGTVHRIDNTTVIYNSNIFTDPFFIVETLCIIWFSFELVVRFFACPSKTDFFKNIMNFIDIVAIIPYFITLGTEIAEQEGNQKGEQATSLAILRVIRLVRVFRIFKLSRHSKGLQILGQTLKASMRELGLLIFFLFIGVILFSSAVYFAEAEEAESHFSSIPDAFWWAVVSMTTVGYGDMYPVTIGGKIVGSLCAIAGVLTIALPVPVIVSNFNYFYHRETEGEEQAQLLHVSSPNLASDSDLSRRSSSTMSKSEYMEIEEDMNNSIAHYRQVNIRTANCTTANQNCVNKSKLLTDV

Chain of human Kv1.3 (P22001 whole entry): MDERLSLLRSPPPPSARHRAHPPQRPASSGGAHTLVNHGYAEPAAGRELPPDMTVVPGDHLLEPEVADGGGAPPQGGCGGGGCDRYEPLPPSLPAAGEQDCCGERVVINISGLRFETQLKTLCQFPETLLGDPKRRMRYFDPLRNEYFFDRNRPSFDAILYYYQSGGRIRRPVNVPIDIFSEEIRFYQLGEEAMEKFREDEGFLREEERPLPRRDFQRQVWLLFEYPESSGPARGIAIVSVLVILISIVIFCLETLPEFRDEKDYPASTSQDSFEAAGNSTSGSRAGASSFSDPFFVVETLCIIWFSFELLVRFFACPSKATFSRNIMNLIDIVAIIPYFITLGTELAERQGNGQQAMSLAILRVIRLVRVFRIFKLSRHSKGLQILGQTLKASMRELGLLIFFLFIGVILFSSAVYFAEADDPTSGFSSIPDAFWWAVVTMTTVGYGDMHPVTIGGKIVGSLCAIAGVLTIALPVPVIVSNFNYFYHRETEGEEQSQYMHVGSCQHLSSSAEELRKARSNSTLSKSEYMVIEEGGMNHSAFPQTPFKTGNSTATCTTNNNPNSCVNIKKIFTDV
Chain of Kv1.3 Mutant 3 (P22001 whole entry H451V/V453T): as the sequence (P22001 whole entry) above, with H451V, V453T counted along it
Chain of Kv7.5 (Q9NR82 whole entry): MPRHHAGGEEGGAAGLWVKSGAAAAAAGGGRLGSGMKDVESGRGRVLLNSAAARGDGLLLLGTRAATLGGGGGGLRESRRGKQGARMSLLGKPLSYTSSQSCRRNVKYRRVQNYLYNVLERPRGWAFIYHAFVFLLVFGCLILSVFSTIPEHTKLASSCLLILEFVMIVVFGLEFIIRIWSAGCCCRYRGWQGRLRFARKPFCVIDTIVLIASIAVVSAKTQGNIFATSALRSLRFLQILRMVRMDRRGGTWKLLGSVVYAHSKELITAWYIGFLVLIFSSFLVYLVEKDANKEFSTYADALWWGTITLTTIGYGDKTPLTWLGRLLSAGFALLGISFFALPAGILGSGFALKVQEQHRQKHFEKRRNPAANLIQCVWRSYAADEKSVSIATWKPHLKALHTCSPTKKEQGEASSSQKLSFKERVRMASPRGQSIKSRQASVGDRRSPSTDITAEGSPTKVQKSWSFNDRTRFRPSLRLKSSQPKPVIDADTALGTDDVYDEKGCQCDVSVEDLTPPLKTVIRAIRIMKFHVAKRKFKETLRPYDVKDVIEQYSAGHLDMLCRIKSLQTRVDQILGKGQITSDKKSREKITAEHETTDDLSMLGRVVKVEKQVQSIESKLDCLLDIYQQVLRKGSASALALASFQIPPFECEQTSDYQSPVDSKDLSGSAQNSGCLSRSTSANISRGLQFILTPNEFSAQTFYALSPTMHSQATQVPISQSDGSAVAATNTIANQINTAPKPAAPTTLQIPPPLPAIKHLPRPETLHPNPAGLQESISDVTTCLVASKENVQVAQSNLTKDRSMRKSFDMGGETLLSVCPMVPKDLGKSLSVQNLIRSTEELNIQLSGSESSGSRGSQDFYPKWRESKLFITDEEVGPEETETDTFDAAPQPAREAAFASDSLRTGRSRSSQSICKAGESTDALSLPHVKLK

Substance: tannic acid
- Current at 0 (mV) (human Kv1.3; 0.1 µM tannic acid, control 1.99 ± 0.28): 2.39 ± 0.41
- Slope (human Kv1.3; 0.1 µM tannic acid, control 4.86 ± 0.31): 4.70 ± 0.45 mV
- V0.5 Normalized tail current (human Kv1.3; 0.1 µM tannic acid, control -27.75 ± 1.03): -27.80 ± 2.36 mV
- Current at 0 (mV) (human Kv1.3; 1 µM tannic acid): 2.23 ± 0.35
- Slope (human Kv1.3; 1 µM tannic acid): 4.73 ± 0.52 mV
- V0.5 Normalized tail current (human Kv1.3; 1 µM tannic acid): -28.17 ± 3.08 mV
- Current at 0 (mV) (human Kv1.3; 3 µM tannic acid): 1.96 ± 0.31
- Slope (human Kv1.3; 3 µM tannic acid): 5.21 ± 0.43 mV
- V0.5 Normalized tail current (human Kv1.3; 3 µM tannic acid): -28.73 ± 3.31 mV
- Current at 0 (mV) (human Kv1.3; 10 µM tannic acid): 1.09 ± 0.25
- Slope (human Kv1.3; 10 µM tannic acid): 7.44 ± 0.95 mV
- V0.5 Normalized tail current (human Kv1.3; 10 µM tannic acid): -25.49 ± 4.06 mV
- Current at 0 (mV) (human Kv1.3; 30 µM tannic acid): 0.72 ± 0.27
- Slope (human Kv1.3; 30 µM tannic acid): 10.91 ± 2.27 mV
- V0.5 Normalized tail current (human Kv1.3; 30 µM tannic acid): -19.06 ± 4.68 mV
- time to steady-state block (human Kv1.3; 30 µM tannic acid, 2 s depolarizing pulses every 60 s (6 pulses)): 300 ms
- time to steady-state block (human Kv1.3; 30 µM tannic acid, 200-ms depolarizing pulses every 60 s (13 pulses)): 700 ms
- effect of 160 mM [K+]O on Kv1.3 inhibition (human Kv1.3; 30 µM tannic acid): abolished inhibition
- Current at 0 (mV) (human Kv1.3; 100 µM tannic acid): 0.32 ± 0.08
- Slope (human Kv1.3; 100 µM tannic acid): 15.18 ± 2.02 mV
- V0.5 Normalized tail current (human Kv1.3; 100 µM tannic acid): -9.91 ± 3.45 mV
- effect of 160 mM [K+]O on Kv1.3 inhibition (human Kv1.3; 100 µM tannic acid): significantly reduced the efficacy
- IC50 (human Kv1.3; prepulse current, read-out: IC50 for Kv1.3 inhibition in oocytes): 12 ± 1.3 µM
- concentrations that depolarized the EM of oocytes expressing Kv1.3 (human Kv1.3; unclamped oocytes): above 10 µM
- Current at 0 (mV) (TREK-1 (KCNK2); 10 µM tannic acid, control 0.23 ± 0.03): 0.44 ± 0.08
- Current at 0 (mV) (TREK-1 (KCNK2); 50 µM tannic acid): 0.89 ± 0.11
- Current at 0 (mV) (TREK-1 (KCNK2); 100 µM tannic acid): 1.37 ± 0.14
- Current at 0 (mV) (TREK-1 (KCNK2); 250 µM tannic acid): 1.86 ± 0.19
- Current at 0 (mV) (TREK-1 (KCNK2); 500 µM tannic acid): 2.22 ± 0.24
- increase in KCNK2 current (TREK-1 (KCNK2); at 500 µM, 0 mV): > 10 fold
- EC50 (TREK-1 (KCNK2); current fold increase at 0 mV, read-out: EC50 for KCNK2 (TREK-1) activation): 143 ± 4 µM
- Slope (Kv1.3 Mutant 3; 0.1 µM tannic acid, control 2.50 ± 0.70): 4.01 ± 0.35 mV
- Current at 0 (mV) (Kv1.3 Mutant 3; 0.1 µM tannic acid, control 3.39 ± 0.48): 4.20 ± 0.53
- V0.5 Normalized tail current (Kv1.3 Mutant 3; 0.1 µM tannic acid, control -31.00 ± 0.53): -30.20 ± 0.78 mV
- Current at 0 (mV) (Kv1.3 Mutant 3; 1 µM tannic acid): 4.44 ± 0.64
- Slope (Kv1.3 Mutant 3; 1 µM tannic acid): 3.67 ± 0.41 mV
- V0.5 Normalized tail current (Kv1.3 Mutant 3; 1 µM tannic acid): -30.51 ± 0.97 mV
- Current at 0 (mV) (Kv1.3 Mutant 3; 3 µM tannic acid): 4.25 ± 0.64
- Slope (Kv1.3 Mutant 3; 3 µM tannic acid): 4.85 ± 0.24 mV
- V0.5 Normalized tail current (Kv1.3 Mutant 3; 3 µM tannic acid): -30.85 ± 1.34 mV
- Current at 0 (mV) (Kv1.3 Mutant 3; 10 µM tannic acid): 2.28 ± 0.38
- Slope (Kv1.3 Mutant 3; 10 µM tannic acid): 6.40 ± 0.62 mV
- V0.5 Normalized tail current (Kv1.3 Mutant 3; 10 µM tannic acid): -29.05 ± 1.94 mV
- Current at 0 (mV) (Kv1.3 Mutant 3; 30 µM tannic acid): 0.88 ± 0.13
- Slope (Kv1.3 Mutant 3; 30 µM tannic acid): 14.11 ± 1.75 mV
- V0.5 Normalized tail current (Kv1.3 Mutant 3; 30 µM tannic acid): -16.81 ± 5.40 mV
- Current at 0 (mV) (Kv1.3 Mutant 3; 100 µM tannic acid): 0.50 ± 0.07
- change of tannic acid IC50 versus wild-type Kv1.3 (Kv1.3 Mutant 3; inhibition dose response): did not alter
- constitutive activation for Kv7.5 (Kv7.5): 50%
- effect on voltage dependence of Kv1.1 (Kv1.1): negative-shift
